{"source": "patent US4616081A", "about": "“Cephalosporin compounds” (Asahi Kasei Kogyo Kabushiki Kaisha, priority 1982, dated 1986)", "key": {"E. coli W3630": {"test_system": "E. coli W3630", "assay": "MIC against E. coli W3630", "format": "cell-based", "experimental": "(§1) Nextly, antibacterial activity or minimum inhibitory concentration (MIC) was measured and the results are shown in Table 1 with respect to the following representative compounds according to the present invention. [drawing 19]\n(§2) With respect to Compound Nos. 14 and 15, antibacterial activity or minimum inhibitory concentration (MIC) was measured and the results are shown in Table 2. [drawing 21]"}, "[1]": {"test_system": "Klebs. pneumoniae ATCC 10031", "assay": "MIC against Klebs. pneumoniae ATCC 10031", "format": "cell-based", "experimental": "as §1, §2"}, "Shigella sonnei E33": {"test_system": "Shigella sonnei E33", "assay": "MIC against Shigella sonnei E33", "format": "cell-based", "experimental": "as §1, §2"}, "E. coli W3630 RGN238": {"test_system": "E. coli W3630 RGN238", "assay": "MIC against E. coli W3630 RGN238", "format": "cell-based"}, "E. coli W3630 RGN14": {"test_system": "E. coli W3630 RGN14", "assay": "MIC against E. coli W3630 RGN14", "format": "cell-based"}, "[2]": {"test_system": "Enterobact. cloacae GN336", "assay": "MIC against Enterobact. cloacae GN336", "format": "cell-based", "experimental": "as §1, §2"}, "[3]": {"assay": "maximum blood concentration after oral administration in Wister rats (HPLC and Bioassay)", "format": "in vivo", "conditions": "Wister rat, fasted, 30 mg/kg, solution of pH 7 in phosphate buffer", "experimental": "Further in the compounds according to the present invention, intestinal absorption is improved by the introduction of amino acids at the 3-position thereof. For example, comparison of the maximum blood concentration of the Compound Nos. 2, 3, 7, 8, 14, 15 and 23 with that of Comparative Compound (b) establishes and affirms the effects, as is shown below. In the above test, the method for measurement of blood concentration was as follows. Rate: Wister rat weighing 170 to 220 g Dose: 30 mg/kg Wister rats were fasted from the previous night but freely accessible to water. Each of drugs was administered as a solution of pH 7 in a phosphate buffer, when orally administered. The blood concentration was measured in accordance with the High Performance Liquid Chromatography (HPLC) method and the Bioassay method by using E. coli as bacteria for test."}, "Serratia marcescens": {"test_system": "Serratia marcescens", "assay": "MIC against Serratia marcescens", "format": "cell-based", "experimental": "as §1, §2"}, "[4]": {"assay": "acute toxicity test using mice, intraperitoneal", "conditions": "mouse, in vivo, ip", "source_text": "In addition to excellent antibacterial activity, the compounds of the present invention are low in toxicity. For example, in acute toxicity test using mice, the following results were obtained with Compound Nos. 2, 3, 7, 14, 15 and 23 which were intraperitoneally administered."}, "E. coli NIHJ-JC2": {"test_system": "E. coli NIHJ-JC2", "assay": "MIC against E. coli NIHJ-JC2", "format": "cell-based", "experimental": "as §1, §2"}, "Proteus rettgeri ACR": {"test_system": "Proteus rettgeri ACR", "assay": "MIC against Proteus rettgeri ACR", "format": "cell-based", "experimental": "as §1, §2"}, "E. coli 0205": {"test_system": "E. coli 0205", "assay": "MIC against E. coli 0205", "format": "cell-based"}, "Strept. pyogenes NY5": {"test_system": "Strept. pyogenes NY5", "assay": "MIC against Strept. pyogenes NY5", "format": "cell-based", "conditions": "Bacterial count inoculated 10^6 cells/ml", "experimental": "as §1, §2"}, "Ps. aeruginosa 0812 M2": {"test_system": "Ps. aeruginosa 0812 M2", "assay": "MIC against Ps. aeruginosa 0812 M2", "format": "cell-based", "conditions": "Bacterial count inoculated 10^6 cells/ml", "experimental": "as §1, §2"}, "Proteus morganii 0239": {"test_system": "Proteus morganii 0239", "assay": "MIC against Proteus morganii 0239", "format": "cell-based", "conditions": "Bacterial count inoculated 10^6 cells/ml", "experimental": "as §1, §2"}, "[5]": {"test_system": "Citrobact. freundii GN346", "assay": "MIC against Citrobact. freundii GN346", "format": "cell-based", "conditions": "Bacterial count inoculated 10^6 cells/ml", "experimental": "as §1, §2"}, "Sarcina lutea ATCC 9341": {"test_system": "Sarcina lutea ATCC 9341", "assay": "MIC against Sarcina lutea ATCC 9341", "format": "cell-based", "conditions": "Bacterial count inoculated 10^6 cells/ml", "experimental": "as §1, §2"}, "[6]": {"test_system": "Salm. enteritidis Gaertner", "assay": "MIC against Salm. enteritidis Gaertner", "format": "cell-based", "conditions": "Bacterial count inoculated 10^6 cells/ml", "experimental": "as §1, §2"}, "Staph. aureus MS27": {"test_system": "Staph. aureus MS27", "assay": "MIC against Staph. aureus MS27", "format": "cell-based", "conditions": "Bacterial count inoculated 10^6 cells/ml", "experimental": "as §1, §2"}, "Staph. aureus ATCC 6538P": {"test_system": "Staph. aureus ATCC 6538P", "assay": "MIC against Staph. aureus ATCC 6538P", "format": "cell-based", "conditions": "Bacterial count inoculated 10^6 cells/ml", "experimental": "as §1, §2"}, "E. coli W3630 PS3": {"test_system": "E. coli W3630 PS3", "assay": "MIC against E. coli W3630 PS3", "format": "cell-based", "conditions": "Bacterial count inoculated 10^6 cells/ml", "experimental": "as §1, §2"}, "[7]": {"test_system": "Enterobact. aerogenes 0655", "assay": "MIC against Enterobact. aerogenes 0655", "format": "cell-based", "conditions": "Bacterial count inoculated 10^6 cells/ml", "experimental": "as §1, §2"}, "[8]": {"conditions": "Bacterial count inoculated 10^6 cells/ml"}, "[9]": {"conditions": "Table 3, second listing of the strain, head prints 10^6 cells/ml"}}}
{"smiles": "CO/N=C(\\C(=O)N[C@@H]1C(=O)N2C(C(=O)O)=C(CSc3ncc(C[C@H](N)C(=O)O)[nH]3)CS[C@H]12)c1csc(N)n1", "note": "[Compound No. 23]", "values": [{"measurement": "Minimum Inhibitory Concentration (MIC)", "setting": "E. coli W3630; [8]", "result": "≤ 0.2"}, {"measurement": "Minimum Inhibitory Concentration (MIC)", "setting": "E. coli W3630; [9]", "result": 6.3}, {"measurement": "Minimum Inhibitory Concentration (MIC)", "setting": "[1]; [8]", "result": "≤ 0.2"}, {"measurement": "Minimum Inhibitory Concentration (MIC)", "setting": "[1]; [9]", "result": 1.6}, {"measurement": "Minimum Inhibitory Concentration (MIC)", "setting": "Shigella sonnei E33; [8]", "result": "≤ 0.2"}, {"measurement": "Minimum Inhibitory Concentration (MIC)", "setting": "Shigella sonnei E33; [9]", "result": 1.6}, {"measurement": "Minimum Inhibitory Concentration (MIC)", "setting": "E. coli W3630 RGN238; [8]", "result": "≤ 0.2"}, {"measurement": "Minimum Inhibitory Concentration (MIC)", "setting": "E. coli W3630 RGN238; [9]", "result": 25}, {"measurement": "Minimum Inhibitory Concentration (MIC)", "setting": "E. coli W3630 RGN14; [8]", "result": "≤ 0.2"}, {"measurement": "Minimum Inhibitory Concentration (MIC)", "setting": "E. coli W3630 RGN14; [9]", "result": 6.3}, {"measurement": "Minimum Inhibitory Concentration (MIC)", "setting": "[2]; [8]", "result": "≤ 0.2"}, {"measurement": "Minimum Inhibitory Concentration (MIC)", "setting": "[2]; [9]", "result": 25}, {"measurement": "Cmax", "setting": "[3]", "result": 6000, "unit": "ng/mL"}, {"measurement": "Minimum Inhibitory Concentration (MIC)", "setting": "Serratia marcescens; [8]", "result": "≤ 0.2"}, {"measurement": "Minimum Inhibitory Concentration (MIC)", "setting": "Serratia marcescens; [9]", "result": "> 100"}, {"measurement": "LD50", "setting": "[4]", "result": "10000 to 12000", "unit": "mg/kg"}, {"measurement": "Minimum Inhibitory Concentration (MIC)", "setting": "E. coli NIHJ-JC2; [8]", "result": "≤ 0.2"}, {"measurement": "Minimum Inhibitory Concentration (MIC)", "setting": "E. coli NIHJ-JC2; [9]", "result": 12.5}, {"measurement": "Minimum Inhibitory Concentration (MIC)", "setting": "Proteus rettgeri ACR; [8]", "result": "≤ 0.2"}, {"measurement": "Minimum Inhibitory Concentration (MIC)", "setting": "Proteus rettgeri ACR; [9]", "result": 25}, {"measurement": "Minimum Inhibitory Concentration (MIC)", "setting": "E. coli 0205; [8]", "result": 0.4}, {"measurement": "Minimum Inhibitory Concentration (MIC)", "setting": "E. coli 0205; [9]", "result": 12.5}]}
{"smiles": "CC(C)(O/N=C(\\C(=O)N[C@@H]1C(=O)N2C(C(=O)O)=C(CSc3nnc(CC(N)C(=O)O)s3)CS[C@H]12)c1csc(N)n1)C(=O)O", "note": "(stereo partly drawn) [Compound No. 8]", "values": [{"measurement": "Cmax", "setting": "[3]", "result": 8000, "unit": "ng/mL"}]}
{"smiles": "CO/N=C(\\C(=O)N[C@@H]1C(=O)N2C(C(=O)O)=C(CSc3nc(C(=O)O)c(N)n3C)CS[C@H]12)c1csc(N)n1", "note": "[Compound No. 2]", "values": [{"measurement": "Minimum Inhibitory Concentration (MIC)", "setting": "Strept. pyogenes NY5", "result": 0.1}, {"measurement": "Minimum Inhibitory Concentration (MIC)", "setting": "E. coli W3630; [8]", "result": 0.2}, {"measurement": "Minimum Inhibitory Concentration (MIC)", "setting": "Ps. aeruginosa 0812 M2", "result": 6.3}, {"measurement": "Minimum Inhibitory Concentration (MIC)", "setting": "[1]; [8]", "result": 0.1}, {"measurement": "Minimum Inhibitory Concentration (MIC)", "setting": "Shigella sonnei E33; [8]", "result": 0.4}, {"measurement": "Minimum Inhibitory Concentration (MIC)", "setting": "Proteus morganii 0239", "result": 0.1}, {"measurement": "Minimum Inhibitory Concentration (MIC)", "setting": "[5]", "result": 25}, {"measurement": "Minimum Inhibitory Concentration (MIC)", "setting": "[2]; [8]", "result": 0.8}, {"measurement": "Minimum Inhibitory Concentration (MIC)", "setting": "Sarcina lutea ATCC 9341", "result": 0.2}, {"measurement": "Minimum Inhibitory Concentration (MIC)", "setting": "[6]", "result": 0.2}, {"measurement": "Cmax", "setting": "[3]", "result": 16000, "unit": "ng/mL"}, {"measurement": "Minimum Inhibitory Concentration (MIC)", "setting": "Serratia marcescens; [8]", "result": 0.2}, {"measurement": "LD50", "setting": "[4]", "result": "9000 to 10000", "unit": "mg/kg"}, {"measurement": "Minimum Inhibitory Concentration (MIC)", "setting": "Staph. aureus MS27", "result": 6.3}, {"measurement": "Minimum Inhibitory Concentration (MIC)", "setting": "Staph. aureus ATCC 6538P", "result": 3.1}, {"measurement": "Minimum Inhibitory Concentration (MIC)", "setting": "E. coli W3630 PS3", "result": 0.2}, {"measurement": "Minimum Inhibitory Concentration (MIC)", "setting": "E. coli NIHJ-JC2; [8]", "result": 0.2}, {"measurement": "Minimum Inhibitory Concentration (MIC)", "setting": "Proteus rettgeri ACR; [8]", "result": 0.2}, {"measurement": "Minimum Inhibitory Concentration (MIC)", "setting": "[7]", "result": 1.6}]}
